Measurements reported in patent US12691070B2, “Cationic lipids and preparation method thereof” (RiboX Therapeutics HK Limited, priority 2023, dated 2026).

Key:
[1] = LNP size and polydispersity index (PDI) by dynamic light scattering; type: physicochemical; conditions: for Size: in nm (unit assumed)
Procedure, shortened: (§1)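 LNPs of ionizable lipid/DSPC/cholesterol/DMG-PEG 2000 (50:10:38.5:1.5) made by microfluidic mixing of luciferase circRNA or mRNA in pH 4.5 acetate with lipids in ethanol (3:1, 12 ml/min), ionizable lipid:nucleotide 15 or 6, then dialyzed against PBS. Size, PDI (DLS) and zeta potential on Zetasizer; encapsulation by Ribogreen ± Triton X-100.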

[2] = LNP zeta potential (Zetasizer); type: physicochemical
Procedure, shortened: as §1

[3] = RNA encapsulation efficacy by Quant-IT Ribogreen kit; type: physicochemical; conditions: for Encapsulation Efficiency %: LNP with cirRNA (SEQ ID NO: 1); for Encapsulation Efficiency: LNP with mRNA (SEQ ID NO: 2)
Procedure, shortened: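 Ribogreen fluorescence with and without Triton X-100 gave encapsulation as 100% − (intact/lysed) signal; DLS size, PDI and zeta potential measured on a Zetasizer. Particles: 50:10:38.5:1.5 lipid mix, luciferase circRNA or mRNA, lipid:nucleotide 15 or 6, microfluidic assembly at pH 4.5, PBS-dialyzed.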

Hep G2 cells [4] = test: In vitro expression of firefly-luciferase, Hep G2; type: cell-based
Procedure, shortened: (§2)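 Luminescence from cell lysates reports expression: luciferase activity was measured 72 h after transfection with 100 ng/mL RNA-LNPs encoding firefly luciferase.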

RAW 264.7 cells [5] = test: In vitro expression of firefly-luciferase, RAW 264.7; type: cell-based
Procedure, shortened: as §2

Hep G2 cells [6] = test: In vitro toxicity (CellTiter-Glo cell viability), Hep G2; type: cell-based;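 further: percent of untreated cells luminescence signal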
Procedure, shortened: (§3)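 First, cells receive RNA-LNPs at 1 μg/mL by transfection. After 72 hours, CellTiter-Glo reagent is added per kit protocol. Luminescence is then read and converted to cell viability.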

RAW 264.7 cells [7] = test: In vitro toxicity (CellTiter-Glo cell viability), RAW 264.7; type: cell-based;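 further: percent of untreated cells luminescence signal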
Procedure, shortened: as §3

BALB/C mice [8] = test: In vivo expression, whole-body luminescence (IVIS)
Procedure: 6-8 week old, female BALB/C mice were injected with 0.05 mg*kg-1 of RNA-LNPs encoding for firefly-luciferase by intravenous injection. At 6 hours post injection, animals were intraperitoneally injected with 15 mg/ml of Luciferin substrate and whole-body luminescence was determined by a bioluminescent in vivo imaging system (IVIS).

MCP-I = MCP-I cytokine elevation in serum; type: in vivo; conditions: cirRNA (SEQ ID NO: 1) LNPs, mice
Procedure: 6-8 week old, female BALB/C mice were injected with 0.5 mg*kg-1 of RNA LNPs by intravenous injection. At 2 and 24 hours post injection, animals were bled and sera concentrations of MCP-I were determined by an immunoassay (Luminex).

[9] = tested on: Alanine Aminotransferase (ALT); test: Liver enzyme elevation in serum, ALT; type: in vivo; conditions: cirRNA (SEQ ID NO: 1) LNPs, BALB/C mice, intravenous 0.5 MPK
Procedure: (§4) 6-8 week old, female BALB/C mice were injected with 0.5 mg*kg-1 of RNA LNPs by intravenous injection. At 2 and 24 hours post injection, animals were bled and sera concentrations of Alanine Aminotransferase (ALT) and Aspartate Aminotransferase (AST) were determined by a blood chemistry analyzer.

[10] = tested on: Aspartate Aminotransferase (AST); test: Liver enzyme elevation in serum, AST; type: in vivo; conditions: cirRNA (SEQ ID NO: 1) LNPs, BALB/C mice, intravenous 0.5 MPK
Procedure: as §4

BALB/C mice [11] = test: Local tolerance determination by footpad injection; type: in vivo; conditions: cirRNA (SEQ ID NO: 1) LNP, 0.175 mg*kg-1 subcutaneous into the footpad, 24 hours post minus prior
Procedure: 6-8 week old, female BALB/C mice were injected with 0.175 mg*kg-1 RNA LNPs by subcutaneous injection into the footpad. Prior to, and 24 hours post injections, injected footpad thickness was determined by a caliper.

[12] = Long term stability analysis / stability under LNP synthesis conditions (Ethanol and PBS pH=7.4); type: physicochemical; conditions: after incorporation into lipid nanoparticles / LNP synthesis conditions
Procedure: The purity of the lipids was tested, after they were incorporated into lipid nanoparticles, only to find that the Reference Lipids were cleaved under LNP synthesis conditions, either via transesterification or hydrolysis.

[13] = cirRNA (SEQ ID NO: 1) LNPs, firefly-luciferase luminescence, Hep G2 cells
[14] = mRNA (SEQ ID NO: 2) LNP, 100 ng/mL, 72 hours post transfection, luciferase activity
[15] = cirRNA (SEQ ID NO: 1) LNPs, firefly-luciferase luminescence, RAW 264.7 cells
[16] = cirRNA (SEQ ID NO: 1) LNPs, Hep G2 cells
[17] = mRNA (SEQ ID NO: 2) LNP, 1 μg/mL, 72 hours post transfection
[18] = cirRNA (SEQ ID NO: 1) LNPs, RAW 264.7 cells
[19] = cirRNA (SEQ ID NO: 1) LNPs, BALB/C mice
[20] = mRNA (SEQ ID NO: 2) LNP, 0.05 mg*kg-1 intravenous, 6 hours post injection

| SMILES | PDI ([1]; LNP with cirRNA (SEQ ID NO: 1)) | Size ([1]; LNP with cirRNA (SEQ ID NO: 1)) | PDI ([1]; LNP with mRNA (SEQ ID NO: 2)) | Size ([1]; LNP with mRNA (SEQ ID NO: 2)) | Zeta (mV) ([2]; LNP with cirRNA (SEQ ID NO: 1)) | Zeta (mV) ([2]; LNP with mRNA (SEQ ID NO: 2)) | Encapsulation Efficiency % [3] | Encapsulation Efficiency [3] | In vitro Expression HepG2 (Hep G2 cells [4]; [13]) | In vitro Expression HepG2 (Hep G2 cells [4]; [14]) | In vitro Expression RAW (RAW 264.7 cells [5]; [15]) | In vitro Expression RAW (RAW 264.7 cells [5]; [14]) | In vitro Viability HepG2 (Hep G2 cells [6]; [16]) | In vitro Viability HepG2 (Hep G2 cells [6]; [17]) | In vitro Viability RAW (RAW 264.7 cells [7]; [18]) | In vitro Viability RAW (RAW 264.7 cells [7]; [17]) | In vivo Expression (Whole Body) (BALB/C mice [8]; [19]) | In vivo Expression (Whole Body) (BALB/C mice [8]; [20]) | MCP-I in Sera 2 hours After 0.5 MPK Injection (MCP-I) | MCP-I in Sera 24 hours After 0.5 MPK Injection (MCP-I) | also measured |
| --- | --- | --- | --- | --- | --- | --- | --- | --- | --- | --- | --- | --- | --- | --- | --- | --- | --- | --- | --- | --- | --- |
| CCCCCCCCC(CCCCCC)C(=O)OCCCCCCCCN(CCCCCCCCOC(=O)C(CCCCCC)CCCCCCCC)CCCOC(=O)NCCN1CCCCC1 (centres unmarked) [Lipid 380] | 0.1668 | 112.8 | 0.02507 | 88.83 | −2.171 mV | −2.552 mV | 92% | 80.50% | 2.95E+07 | 7.30E+07 | 2.22E+06 | 1.45E+06 | 89% | 94% | 86% | 106% | 4.50E+08 | 4.00E+08 | 1168.73 pg/mL | 1025.26 pg/mL | ALT in Sera (IU/L) 2 hours After 0.5 MPK Injection [9]: 89.33 IU/L; ALT in Sera (IU/L) 24 hours After 0.5 MPK Injection [9]: 122.00 IU/L; AST in Sera (IU/L) 2 hours After 0.5 MPK Injection [10]: 196.33 IU/L; AST in Sera (IU/L) 24 hours After 0.5 MPK Injection [10]: 480.67 IU/L; Footpad Thickness (24 h−0 h, mm) (BALB/C mice [11]): 0.25 mm |
| CCCCCCCCC(CCCCCC)C(=O)OCCCCCCCCN(CCCCCCCCOC(=O)C(CCCCCC)CCCCCCCC)CCCOC(=O)NCCN1CCCCCC1 (centres unmarked) [Lipid 383] | 0.1744 | 90.41 | 0.1802 | 94.23 | −0.4606 mV | −13.05 mV | 95% | 86.72% | 6.03E+06 | 3.97E+01 | 2.93E+06 | 2.14E+06 | 97% | 94% | 89% | 94% | 4.66E+08 | 2.01E+08 | 5759.00 pg/mL | 2458.33 pg/mL | ALT in Sera (IU/L) 2 hours After 0.5 MPK Injection [9]: 99.33 IU/L; ALT in Sera (IU/L) 24 hours After 0.5 MPK Injection [9]: 116.00 IU/L; AST in Sera (IU/L) 2 hours After 0.5 MPK Injection [10]: 245.00 IU/L; AST in Sera (IU/L) 24 hours After 0.5 MPK Injection [10]: 354.67 IU/L; Footpad Thickness (24 h−0 h, mm) (BALB/C mice [11]): 0.60 mm |
| CCCCC/C=C\CCOC(=O)CCCCCCCN(CCCCCCCC(=O)OCC/C=C\CCCCC)CCOC(=O)CCCN(C)C [Lipid C, reference compound] | 0.1152 | 118.3 | 0.08023 | 139.5 | −1.304 mV | 8.776 mV | 74% | 84.38% | 8.20E+02 | 1.03E+04 |  | 4.63E+05 |  | 103% |  | 88% |  | 4.72E+05 |  |  | Stability of the lipid (cleavage, hydrolysis) [12]: extensive hydrolysis of the ester moiety |
